# Results reported in US20240262806A1, “INHIBITORS OF NLRP3” (PTC THERAPEUTICS, INC., priority 2021, published 2024).
# Test system: NLRP3 inflammasome
# Assay: IL-1β Secretion Assay (NLRP3-dependent IL-1β secretion in PMA-differentiated THP-1 cells, nigericin activation, HTRF)
# Type: cell-based
# Settings: Homo sapiens, THP-1, THP-1 cells, 100 ng/mL PMA 24 h, compound 20 h, 2.5 μM Nigericin 3 h; read-out: IC50 IL-1β Inhibition
# Experimental: Cells were washed 1× with 100 ul PBS and replaced with fresh RPMI+5% FBS. Compounds were serial diluted in DMSO with 3 fold dilution for a total of 7 concentrations.
# Compounds, once produced and prepared according to the present invention, can be assessed in variety of assays to characterize their activities. […] IC50 values of IL1β inhibition were calculated from the plot of percentage of inhibition versus the inhibitor concentration by a logistics fit. TABLE I depict examples of compounds according to generic Formulae I. Data which is <1 nM is listed as *****; data 1-10 nM is listed as ****; data 10-100 nM is listed as ***, data 100-300 nM is listed as **, data >300 nM is listed as *.
row,SMILES,IC50 [nM]
1,"CN1C[C@H](F)C[C@@H](Nc2nnc(-c3ccc(Br)cc3O)c3ccnn23)C1 [Compound I-546, 5-Bromo-2-(7-(((3R,5R)-5-fluoro-1-methylpiperidin-3-yl)amino)pyrazolo[1,5-d][1,2,4]triazin-4-yl)phenol]",1 to 10
2,CN1CCC[C@@H](Nc2nnc(-c3ccc(C(F)(F)F)cc3C(F)F)c3cccn23)C1 [Compound I-426],10 to 100
3,CC(C)(O)CNc1nnc(-c2ccc(C(F)(F)F)cc2OC(F)F)c2cccn12 [Compound I-536],10 to 100
4,CN1CCC[C@@H](Nc2nnc(-c3ccc(Cl)cc3OC(F)F)c3ccncc23)C1 [Compound I-132],< 1
5,CN1C[C@H](F)C[C@@H](Nc2nnc(-c3ccc(C(F)(F)F)cc3O)c3cccn23)C1 [Compound I-410],1 to 10
6,Cc1ccc(-c2nnc(N[C@@H]3CCCN(C)C3)n3cccc23)c(O)c1 [Compound I-337],1 to 10
7,Cc1cc2c(N[C@@H]3CCCNC3)nnc(-c3ccc(C(F)(F)F)cc3O)n2n1 [Compound I-332],10 to 100
8,CN1CCC[C@@H](Nc2nnc(-c3ccc(Cl)cc3O)c3ccccc23)C1 [Compound I-13],< 1
9,CN1CCC[C@@H](Nc2nnc(-c3ccc(Cl)cc3O)c3cccn23)C1 [Compound I-355],< 1
10,Oc1cc(C(F)(F)F)ccc1-c1nnc(N[C@H]2CCOC2)n2cccc12 [Compound I-459],10 to 100
11,C[C@H](O)CNc1nnc(-c2ccc(C(F)(F)F)cc2OC(F)F)c2cccn12 [Compound I-389],1 to 10
12,CC(C)N1CCC[C@H](Nc2nnc(-c3ccc(Cl)cc3O)c3cncn23)C1 [Compound I-553],< 1
13,CN1CCCC(Cc2nnc(-c3ccc(C(F)(F)F)cc3O)c3ccccc23)C1 (stereo not shown) [Compound I-44],1 to 10
14,CC(=O)Nc1cc(C(F)(F)F)ccc1-c1nnc(N[C@@H]2CCCN(C)C2)c2ccccc12 [Compound I-126],1 to 10
15,C[C@]1(O)C[C@H](Nc2nnc(-c3ccc(C(F)(F)F)cc3O)c3ccncc23)C1 [Compound I-316],1 to 10
16,"OCCN1CCC[C@@H](Nc2nnc(-c3c(O)cc(Cl)cc3F)c3ccncc23)C1 [Compound I-282, 5-Chloro-3-fluoro-2-[4-[[(3R)-1-(2-hydroxyethyl)-3-piperidyl]amino]pyrido[3,4-d]-pyridazin-1-yl]phenol]",< 1
17,CCN1CCC[C@@H](Nc2nnc(-c3ccc(OC)cc3O)c3cccn23)C1 [Compound I-377],1 to 10
18,Cc1cncc(-c2nnc(N[C@@H]3CCCN(C)C3)c3ccccc23)c1O [Compound I-159],100 to 300
19,CN1CCC(CNc2nnc(-c3ccc(C(F)(F)F)cc3O)c3ccncc23)CC1 [Compound I-302],1 to 10
20,FC(F)Oc1cc(C(F)(F)F)ccc1-c1nnc(NC[C@@H]2CCCO2)n2cccc12 [Compound I-610],10 to 100
21,CN1CCC[C@@H](Nc2nnc(-c3cnc(C#N)cc3O)c3ccccc23)C1 [Compound I-74],10 to 100
22,CNc1cc(C(F)(F)F)ccc1-c1nnc(N[C@@H]2CCCN(C)C2)c2ccccc12 [Compound I-125],1 to 10

row,SMILES,IC50 [nM]
1,"CN1CCC[C@@H](Nc2nnc(-c3ccc(C(F)(F)F)cc3O)c3c(Cl)ccn23)C1 [Compound I-104, 2-[8-Chloro-4-[[(3R)-1-methyl-3-piperidyl]amino]pyrrolo[1,2-d][1,2,4]triazin-1-yl]-5-(trifluoromethyl)phenol]",1 to 10
2,"CN1CCC[C@@H](Nc2nnc(-c3ccc(C(F)(F)F)cc3O)c3c2CCCCC3)C1 [Compound I-36, (R)-2-(4-((1-Methylpiperidin-3-yl)amino)-6,7,8,9-tetrahydro-5H-cyclohepta[d]pyridazin-1-yl)-5-(trifluoromethyl)phenol]",< 1
3,"Cc1ncc2c(-c3ccc(C(F)(F)F)cc3O)nnc(N[C@@H]3CCCN(C)C3)n12 [Compound I-543, (R)-2-(6-Methyl-4-((1-methylpiperidin-3-yl)amino)imidazo[1,5-d][1,2,4]triazin-1-yl)-5-(trifluoromethyl)phenol]",< 1
4,"OCCN1CCC[C@@H](Nc2nnc(-c3ccc(C(F)(F)F)cc3OC(F)F)c3cccn23)C1 [Compound I-325, 2-[(3R)-3-[[1-[2-(Difluoromethoxy)-4-(trifluoromethyl)phenyl]pyrrolo[1,2-d][1,2,4]triazin-4-yl]amino]-1-piperidyl]ethanol]",1 to 10
5,CN1CCC[C@@H](Nc2nnc(-c3c(O)cc(Cl)cc3F)c3cccn23)C1 [Compound I-432],< 1
6,FC(F)Oc1cc(C(F)(F)F)ccc1-c1nnc(N[C@@H]2CCCN(C3CCOCC3)C2)n2cccc12 [Compound I-326],< 1
7,CCN1CCC[C@H]1CNc1nnc(-c2c(O)cc(C)cc2F)c2cccn12 [Compound I-582],1 to 10
8,CCN1CCC[C@@H](Nc2nnc(-c3ccc(C(F)(F)F)cc3C(F)(F)F)c3cccn23)C1 [Compound I-371],< 1
9,CN1CCC(Nc2nnc(-c3ccc(C(F)(F)F)cc3O)c3ccncc23)CC1 [Compound I-224],10 to 100
10,COc1ccc(-c2nnc(N[C@@H]3CCCN(C)C3)c3cnccc23)c(C(F)F)c1 [Compound I-287],1 to 10
11,COc1cc(C(F)(F)F)ccc1-c1nnc(N2CCNCC2)c2ccncc12 [Compound I-153],10 to 100
12,CN1CCC[C@@H](Nc2nnc(-c3cc(-c4ccccc4)ccc3O)c3ccccc23)C1 [Compound I-40],100 to 300
13,CN1CCC[C@@H](Nc2nnc(-c3c(O)cc(C(F)(F)F)cc3F)c3ccncc23)C1 [Compound I-197],< 1
14,"Oc1cc(C(F)(F)F)ccc1-c1nnc(N[C@@H]2CCCN(C3CC3)C2)c2cnccc12 [Compound I-215, 2-[4-[[(3R)-1-cyclopropyl-3-piperidyl]amino]pyrido[3,4-d]pyridazin-1-yl]-5-(trifluoromethyl)phenol]",< 1
15,CCN1CCC[C@@H](Nc2nnc(-c3c(O)cc(C)cc3F)c3cc(C)nn23)C1 [Compound I-515],< 1
16,Cc1cc(O)c(-c2nnc(N[C@@H]3CCCN(C4CCOC4)C3)n3cccc23)c(F)c1 (stereo partly shown) [Compound I-489],1 to 10
17,CN1CCC[C@@H](Nc2nnc(-c3ccc(Cl)cc3OC(F)F)c3ccccc23)C1 [Compound I-133],1 to 10
18,"CCOC(=O)CN1CCC[C@@H](Nc2nnc(-c3ccc(C(F)(F)F)cc3O)c3ccccc23)C1 [Compound I-65, Ethyl (R)-2-(3-((4-(2-hydroxy-4-(trifluoromethyl)phenyl)phthalazin-1-yl)amino)piperidin-1-yl)acetate]",< 1
19,OCCN1CCC[C@@H](Nc2nnc(-c3ccc(OC(F)(F)F)cc3O)c3cccn23)C1 [Compound I-373],1 to 10
20,CCN1CCC[C@@H](Nc2nnc(-c3ccc(OC(F)(F)F)cc3O)c3cccn23)C1 [Compound I-609],1 to 10
21,COc1ccc(-c2nnc(N[C@@H]3CCCN(C)C3)c3c2CCC3)c(C(F)(F)F)c1 [Compound I-258],10 to 100
22,Oc1cc(C(F)(F)F)ccc1-c1nnc(N[C@@H]2CCC[C@H](O)C2)n2ccc(F)c12 [Compound I-526],10 to 100

row,SMILES,IC50 [nM]
1,COc1cc(Br)ccc1-c1nnc(N[C@@H]2CCCN(C)C2)n2nccc12 [Compound I-451],10 to 100
2,C[C@H]1COCCN1CCNc1nnc(-c2ccc(C(F)(F)F)cc2O)c2ccccc12 [Compound I-148],10 to 100
3,CC(=O)N1CCCC(Nc2nnc(-c3ccc(C(F)(F)F)cc3O)c3ccccc23)C1 (stereo not shown) [Compound I-64],10 to 100
4,CN1CCC[C@@H](Nc2nnc(-c3ccc(Cl)cc3O)c3ccncc23)C1 [Compound I-60],< 1
5,CN1CCC[C@@H](Nc2nnc(-c3ccc(C(F)(F)F)cc3C(F)F)c3ccncc23)C1 [Compound I-138],1 to 10
6,Cc1cc(F)c(-c2nnc(N[C@@H]3CCCN(CC(C)(C)O)C3)n3cccc23)c(OC(F)F)c1 [Compound I-476],100 to 300
7,CO[C@H]1CCC[C@@H](Nc2nnc(-c3ccc(C(F)(F)F)cc3O)c3cccn23)C1 [Compound I-400],100 to 300
8,Cc1cc(O)c(-c2nnc(N[C@@H]3CCCN(C(C)C)C3)n3cccc23)c(F)c1 [Compound I-569],< 1
9,Cc1nc(-c2ccc(-c3nnc(N[C@@H]4CCCNC4)c4ccccc34)c(O)c2)ns1 [Compound I-32],10 to 100
10,CN1CCC[C@@H](Nc2nnc(-c3ccc(C(F)(F)F)cc3F)c3ccncc23)C1 [Compound I-128],1 to 10
11,CN1CCC[C@@H](Nc2nnc(-c3ccc(C(F)(F)F)cc3O)c3occc23)C1 [Compound I-85],10 to 100
12,CN1CC[C@@H](F)[C@@H](Nc2nnc(-c3ccc(C(F)(F)F)cc3O)c3ccncc23)C1 [Compound I-315],< 1
13,CCN1CCC[C@@H](Nc2nnc(-c3ccc(C(F)(F)F)cc3OC(F)F)c3cccn23)C1 [Compound I-335],< 1
14,CN1CCC[C@@H](Nc2nnc(-c3ccc(C(F)(F)F)cc3O)c3c2N(C)CCC3)C1 [Compound I-154],1 to 10
15,CN1CCC[C@@H](Nc2nnc(-c3ccc(Cl)cc3O)c3cncn23)C1 [Compound I-384],< 1
16,Cc1ccc(-c2nnc(N[C@@H]3CCCN(C)C3)c3ccccc23)c(O)c1C [Compound I-42],< 1
17,Cc1cc(O)c(-c2nnc(N[C@@H]3CCCN(C)C3)c3ccccc23)cc1F [Compound I-18],1 to 10
18,Oc1cc(C(F)(F)F)ccc1-c1nnc(N[C@@H]2CCC[C@H](O)C2)n2cccc12 [Compound I-399],10 to 100
19,Cc1cc(Cl)cc(F)c1-c1nnc(N[C@@H]2CCCN(C)C2)c2cnccc12 [Compound I-198],10 to 100
20,CN1CCCCC(Nc2nnc(-c3ccc(C(F)(F)F)cc3O)c3cnccc23)C1 (stereo not shown) [Compound I-185],10 to 100
